Experimental data: publication PMC10874388, “Cyclic peptides discriminate BCL-2 and its clinical mutants from BCL-XL by engaging a single-residue discrepancy” (Nature Communications, 2024)
Where “and” joins values, the source holds several entries; their conditions need not be identical. Equal values may be shown once. Starred links: 1 amine or outer side, 2 acyl side, 3 side chain; linkers in the order of their positions; H or OH if unused. Positions of bridges follow the written chain, without caps; N, C: chain ends. Residues, ends and D or L forms follow the SMILES beside them. No end group written: not given here. X1 = O=C(C[*:2])NCCNC(=O)c1ccc(C2=N[C@H](C(=O)[*:1])CS2)cc1; cADT = 2-aryl-4,5-dihydrothiazole (ADT) linker

Key:
[1] = system: Jurkat cells; assay: Apoptosis assay, Annexin V-FITC/PI staining and flow cytometry; assay type: cell-based; details: for cell apoptosis(%): Figure 6b, replicate values; for Proportion of apoptotic cells: Jurkat, 24 h
Procedure: Jurkat cells were seeded to 6-well plates at a density of 4 ×10^5 cells per well. Cells were incubated in the presence of DMSO, venetoclax at 2.5 μM, cp1-TAT at 30 μM, cp2-TAT at 30 μM, or cp3-TAT at 20 μM in serum-free RPMI medium for 4 h. After being incubated totally for 24 h, cells were washed once with PBS and stained with 100 μL binding buffer containing 5 μL Annexin V-FITC and 10 μL PI for 15 min, followed by addition of 400 μL binding buffer to detect cell apoptosis with FCM (BD FACSAria Fusion). Statistical analysis was performed using software FlowJo V10 and GraphPad Prism 7.0.

[2] = system: RS4:11 cells; assay: Cell viability assay (CellTiter-Glo), RS4:11; assay type: cell-based; details: RS4:11, single wells
Procedure: (§1) The cell lines Jurkat (TIB-152), El4 (TIB-39), Daudi (ccl-213), RS4:11 (crl-1873), A549 (ccl-185), HepG2 (hb-8065) and PANC-1 (crl-1469) were purchased from ATCC (American Type Culture Collection), and MGC-803 (C6582) was purchased from Beyotime (https://www.beyotime.com/product/C6582.htm). […] Daudi and RS4:11 cells were cultured in RPMI-1640 medium (HyClone, SH30809.01) and 10% FBS (Gibco, 10099-141), whereas HepG2, MGC-803 and PANC-1 cells were cultured in MDEM (HyClone, SH30243.01). Cells were maintained at 37 °C under a humidified, 5% (v/v) CO2-containing atmosphere.
(§2) Cell viability was measured using CellTiter-Glo® 2.0 Reagent (Promega, G9242). […] After different inhibitors were added into serum-free medium and cultured for 4 h (RS4:11 for 6 h), FBS were supplemented to 10% and then incubated totally for 24 h or 48 h. Finally, the IC50 values were calculated based on measurements using a microplate reader (Thermo, Varioskan LUX). Statistical analysis was performed using software GraphPad Prism 7.0.

[3] = system: Jurkat cells; assay: Mitochondrial membrane potential (JC-1), flow cytometry and fluorescence microscopy; assay type: cell-based; details: for Q1(%) / Q1(%)/Q3(%) / Q3(%): Figure 6d, 4h, replicate values; for ΔΨm (ratio of red over green fluorescence, Q1/Q3) / Relative ΔΨm by JC-1 fluorescence staining (microscopy): Jurkat; for ΔΨm (ratio of red over green fluorescence, Q1/Q3): 4 h treatment, JC-1, flow cytometry, n = 3; for Relative ΔΨm by JC-1 fluorescence staining (microscopy): 24 h treatment (Supplementary Fig. 13)
Procedure: For the mitochondrial membrane potential (ΔΨm) analysis, the mitochondrial membrane potential assay kit with JC-1 dye (Beyotime, C2006) was used according to the manufacturer’s protocol. […] The value of ΔΨm was expressed as the ratio of red fluorescence intensity over green fluorescence intensity. After treated with JC-1, fluorescence intensity of Jurkat cells was tested by flow cytometry (BD FACSAria Fusion) and fluorescence microscopy (NIKON Ti-E), respectively. All experiments were performed in triplicate. Statistical analysis was performed using software GraphPad Prism 7.0.

[4] = system: Daudi cells; assay: Cell viability assay (CellTiter-Glo), Daudi; assay type: cell-based; details: 48 h treatment, CellTiter-Glo
Procedure: as §1, §2

[5] = target: T1, human BCL-XL (residues 1-210, with 27-81 and 210-233 removed) (human, UniProt Q07817-1 1-209, 27-81 removed, biotin (biotinylated for SPR; site not stated)); assay: SPR; Biacore T200; biotinylated proteins immobilised on a CAP sensor chip; peptides flowed in multiple cycles (25-12800 nM, depending on the peptides) at 30 uL/min; 10 mM PBS, 50 uM EDTA, 0.05% Tween-20, 25 °C; affinity fitting, 1:1 binding model; details: both partners purified
T1 construct: BCL-XL, human; printed as residues 1-210, with 27-81 and 210-233 removed (so the last residue is 209 or 210); source: E. coli BL21 (DE3), purified (Ni-NTA, Superdex 75, RESOURCE Q, Superdex 200)

[6] = target: T2, chimeric human BCL-2 (residues 1-50 and 92-207, residues 35-50 replaced with residues 33-48 of BCL-XL) (human, UniProt P10415 1-34; Q07817-1 33-48; P10415 92-207, biotin (biotinylated for SPR; site not stated)); assay: as above; details: both partners purified
T2 construct: BCL-2, human, residues 1-34 of the chimera (internal loop 51-91 removed; residues 35-50 replaced with residues 33-48 of BCL-XL); BCL-XL, human, residues 33-48, in place of BCL-2 residues 35-50; BCL-2, human, residues 92-207; Biotinylated for SPR; used as such for crystals and fluorescence polarisation; also called BCL-2 WT; source: E. coli BL21 (DE3), purified (Ni-NTA, Superdex 75, RESOURCE Q, …)
T2 chain (looked up): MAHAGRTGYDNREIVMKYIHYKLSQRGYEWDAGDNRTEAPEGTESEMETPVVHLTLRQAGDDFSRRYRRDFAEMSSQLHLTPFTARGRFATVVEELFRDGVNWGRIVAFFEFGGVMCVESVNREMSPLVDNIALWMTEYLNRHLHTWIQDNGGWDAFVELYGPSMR

T1 sequence (Q07817 other isoform, or with tags, fused parts or gaps 27-81 removed | 27-81 removed): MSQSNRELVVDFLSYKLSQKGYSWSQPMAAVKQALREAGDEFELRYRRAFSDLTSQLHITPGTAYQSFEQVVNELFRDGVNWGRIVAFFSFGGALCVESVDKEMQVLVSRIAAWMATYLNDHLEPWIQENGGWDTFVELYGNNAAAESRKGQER

CC[C@H](C)[C@@H]1NC(=O)[C@@H]2CCCN2C(=O)[C@@H]2CSC(=N2)c2ccc(cc2)C(=O)NCCNC(=O)CSC[C@@H](C(=O)NCC(=O)N[C@@H](CO)C(=O)NCC(=O)N[C@@H](CO)C(=O)N[C@@H](CCCNC(=N)N)C(=O)N[C@@H](CCCCN)C(=O)N[C@@H](CCCCN)C(=O)N[C@@H](CCCNC(=N)N)C(=O)N[C@@H](CCCNC(=N)N)C(=O)N[C@@H](CCC(N)=O)C(=O)N[C@@H](CCCNC(=N)N)C(=O)N[C@@H](CCCNC(=N)N)C(=O)N[C@@H](CCCNC(=N)N)C(N)=O)NC(=O)[C@H](Cc2ccccc2)NC(=O)[C@H](CCC(=O)O)NC(=O)[C@H](CC(=O)O)NC(=O)[C@H](Cc2c[nH]c3ccccc23)NC(=O)[C@H](CCC(=O)O)NC(=O)[C@H](Cc2ccc(O)cc2)NC(=O)[C@H](CCCNC(=N)N)NC1=O [cp2-TAT] (PIRYEWDEFCGSGSRKKRRQRRR-NH2; linker N-10 via X1; C-terminus assumed)
cell apoptosis(%) [1]: 18.83% and 24.52%
Proportion of apoptotic cells ([1]; 30 μM): 18.83%
raw luminescence reading ([2]; 0.0488281 uM): 377400 and 399400 and 472900 and 398600 and 396500 and 376600
inhibition rate ([2]; 0.0488281 uM, 0.0488281 µM): 9%
raw luminescence reading ([2]; 0.0976562 uM): 367900 and 411600 and 442500 and 406100 and 405700 and 384000
raw luminescence reading ([2]; 0.195312 uM): 397400 and 403000 and 448800 and 404500 and 392400 and 382800
raw luminescence reading ([2]; 0.390625 uM): 444700 and 450800 and 451700 and 438000 and 424700 and 412100
inhibition rate ([2]; 0.390625 uM, 0.390625 µM): -7.55% and -9% and -6% and -2.71% and 0.339%
raw luminescence reading ([2]; 0.78125 uM): 472600 and 478400 and 471500 and 453400 and 442900 and 434600
inhibition rate ([2]; 0.78125 uM, 0.78125 µM): -14%
raw luminescence reading ([2]; 1.5625 uM): 448100 and 455300 and 501800 and 445000 and 424900 and 404900
raw luminescence reading ([2]; 3.125 uM): 365800 and 401400 and 456400 and 498100 and 396600 and 403200
raw luminescence reading ([2]; 6.25 uM): 354100 and 405500 and 450900 and 485900 and 401500 and 412400
raw luminescence reading ([2]; 12.5 uM): 349800 and 390500 and 462000 and 475300 and 407800 and 417800
raw luminescence reading ([2]; 25 uM): 354900 and 371900 and 417300 and 420500 and 396000 and 400300
raw luminescence reading ([2]; 50 uM): 273500 and 288400 and 308900 and 317300 and 306600 and 319600
inhibition rate ([2]; 50 uM, 50 µM): 34% and 30% and 25% and 23% and 26%
raw luminescence reading ([2]; 100 uM): 86770 and 92180 and 107300 and 109400 and 97150 and 101700
inhibition rate ([2]; 100 uM, 100 µM): 79% and 78% and 74% and 77% and 75%
Q1(%) [3]: 90.3% and 89.6% and 90%
Q1(%)/Q3(%) [3]: 12.1534 and 10.7049 and 11.4358
Q3(%) [3]: 7.43% and 8.37% and 7.87%
ΔΨm (ratio of red over green fluorescence, Q1/Q3) [3]: 11.43
Relative ΔΨm by JC-1 fluorescence staining (microscopy) [3]: slightly decreased

CC[C@H](C)[C@@H]1NC(=O)[C@@H]2CCCN2C(=O)[C@@H]2CSC(=N2)c2ccc(cc2)C(=O)NCCNC(=O)CSC[C@@H](C(=O)NCC(=O)N[C@@H](CO)C(=O)NCC(=O)N[C@@H](CO)C(=O)N[C@@H](CCCNC(=N)N)C(=O)N[C@@H](CCCCN)C(=O)N[C@@H](CCCCN)C(=O)N[C@@H](CCCNC(=N)N)C(=O)N[C@@H](CCCNC(=N)N)C(=O)N[C@@H](CCC(N)=O)C(=O)N[C@@H](CCCNC(=N)N)C(=O)N[C@@H](CCCNC(=N)N)C(=O)N[C@@H](CCCNC(=N)N)C(N)=O)NC(=O)[C@H](CCC(=O)O)NC(=O)[C@H](C(C)C)NC(=O)[C@H](CC(=O)O)NC(=O)[C@H](Cc2c[nH]c3ccccc23)NC(=O)[C@@H]2CCCN2C(=O)[C@H](Cc2ccc(O)cc2)NC(=O)[C@H](CCCNC(=N)N)NC1=O [cp3-TAT] (PIRYPWDVECGSGSRKKRRQRRR-NH2; linker N-10 via X1; C-terminus assumed)
cell apoptosis(%) [1]: 99.03% and 93.5%
Proportion of apoptotic cells ([1]; 20 μM): 99.03%
IC50 [4]: 7940 nM
raw luminescence reading ([2]; 0.0488281 uM): 433900 and 423300 and 457600 and 413600 and 399000 and 376500
raw luminescence reading ([2]; 0.0976562 uM): 420200 and 404600 and 437700 and 401400 and 384500 and 361600
raw luminescence reading ([2]; 0.195312 uM): 419000 and 421800 and 444400 and 422500 and 407600 and 396300
raw luminescence reading ([2]; 0.390625 uM): 424000 and 396600 and 443200 and 395300 and 386700 and 379800
raw luminescence reading ([2]; 0.78125 uM): 411200 and 409100 and 439500 and 400400 and 395700 and 387400
raw luminescence reading ([2]; 1.5625 uM): 353400 and 425900 and 446500 and 460500 and 369200 and 455200
raw luminescence reading ([2]; 3.125 uM): 352000 and 428300 and 434800 and 455400 and 358000 and 465500
raw luminescence reading ([2]; 6.25 uM): 339600 and 384800 and 395500 and 428900 and 341900 and 416000
raw luminescence reading ([2]; 12.5 uM): 266500 and 298700 and 305700 and 333300 and 270500 and 326800
inhibition rate ([2]; 12.5 uM, 12.5 µM): 37% and 29% and 28% and 21% and 36% and 23%
raw luminescence reading ([2]; 25 uM): 85450 and 98110 and 94850 and 106300 and 88910 and 106600
inhibition rate ([2]; 25 uM, 25 µM): 80% and 77% and 78% and 75% and 79%
inhibition rate ([2]; 50 uM): 100%
inhibition rate ([2]; 100 uM): 100%
Q1(%) [3]: 56.7% and 57.7% and 59.6%
Q1(%)/Q3(%) [3]: 1.435 and 1.514 and 1.628
Q3(%) [3]: 39.5% and 38.1% and 36.6%
ΔΨm (ratio of red over green fluorescence, Q1/Q3) [3]: 1.53
Relative ΔΨm by JC-1 fluorescence staining (microscopy) [3]: red fluorescence almost disappeared

B1: cp4 (peptide)
peptide: CPIRYGWDEFC
modifications: linker 1-11 via cADT (inferred)
notes: cp4 is cp2 with E6 substituted by G6; source: synthetic peptide
Kd [5]: 470 nM
Kd [6]: 80 nM

B2: cp5 (peptide)
peptide: CPIRYPWDEFC
modifications: linker 1-11 via cADT (inferred)
notes: cp5 is cp2 with E6 substituted by P6; source: synthetic peptide
Kd [5]: 40 nM
Kd [6]: 80 nM
